In ChEMBL document CHEMBL2417546, “Antitrypanosomal triterpenoid with an ε-lactone E-ring from Salvia urmiensis” (J Nat Prod, 2013):

Tests used:
L6 = assay: Cytotoxicity against rat L6 cells by Alamar Blue assay; type: cell-based
[1] = tested on: Trypanosoma brucei rhodesiense; assay: Antitrypanosomal activity against bloodstream form of Trypanosoma brucei rhodesiense STIB 900 by Alamar Blue assay; type: functional, organism-based
[2] = Selectivity index, ratio of IC50 for rat L6 cells to IC50 for bloodstream form of Trypanosoma brucei rhodesiense STIB 900; type: toxicity, cell-based; conditions: read-out: Ratio IC50

- IC50 [1]: 5.6 µM
SMILES: C[C@H]1[C@H](C)CC(=O)O[C@]2(C)CC[C@]3(C)C(=C[C@@H](O)[C@@H]4[C@@]5(C)[C@H](O)CC(=O)C(C)(C)[C@@H]5CC[C@]43C)[C@H]12
- IC50 (L6): > 185 µM
- selectivity ratio [2]: 33.1
